The source of these data is US8445674B2, “Heterocyclyl compounds” (Hoffmann-La Roche Inc, priority 2009, dated 2013).

pIC50: −log10 of the molar value.

The assay has as its target T1, human chemokine receptor 2 isoform B (Homo sapiens, UniProt P41597).
T1 construct: host or cells: CHOK1-CCR2B-A5 cells (CHO-K1)
T1 sequence (P41597 1-360 isoform P41597-2): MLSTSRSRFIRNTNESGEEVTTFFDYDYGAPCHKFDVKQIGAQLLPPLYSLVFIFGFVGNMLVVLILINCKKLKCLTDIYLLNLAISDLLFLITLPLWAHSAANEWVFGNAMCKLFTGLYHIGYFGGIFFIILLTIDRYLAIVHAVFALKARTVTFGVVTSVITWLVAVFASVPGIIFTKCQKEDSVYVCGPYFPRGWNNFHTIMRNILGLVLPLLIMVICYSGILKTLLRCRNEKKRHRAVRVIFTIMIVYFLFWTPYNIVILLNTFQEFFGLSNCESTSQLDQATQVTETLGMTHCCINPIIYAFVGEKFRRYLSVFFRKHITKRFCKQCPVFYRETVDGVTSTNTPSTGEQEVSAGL
Put plainly: Calcium mobilization assay (FLIPR, antagonist activity against MCP-1). Type of assay: cell-based. The note with it: Ca mobilisation assay, CHOK1-CCR2B-A5 cells, inhibition of calcium increase induced by 20 nM MCP-1. Here is the method:
Calcium Mobilization Assay
CHOK1-CCR2B-A5 cells (from Euroscreen) stably overexpressing the human chemokine receptor 2 isoform B were cultured in Nutrient Hams F12 medium supplemented with 5% FBS, 100 U/ml penicillin, 100 μg/ml streptomycin, 400 μg/ml G418 and 5 μg/ml puromycin.
For the assay cells were grown overnight in 384-well black clear flat bottom polystyrene plates (Costar) at 37° C. at 5% CO2. After washing with DMEM, 20 mM Hepes, 2.5 mM probenecid, 0.1% BSA (DMEM assay buffer) cells were loaded with 4 μM Fluo-4 in the same DMEM assay buffer for 2 hours at 30° C. Excess dye was removed and cells were washed with DMEM assay buffer. 384-well compound plates were prepared with DMEM assay buffer/0.5% DMSO with or without various concentrations of test compounds. Usually compounds were tested for agonist and antagonist activity.
Test compounds were added to the assay plate and agonist activity was monitored as fluorescence for 80 seconds with a FLIPR (488 nm excitation; 510-570 nm emission; Molecular Devices). After 20-30 min. of incubation at 30° C., 20 nM MCP-1 (R&D; Roche) was added and fluorescence was monitored again for 80 seconds. Increases in intracellular calcium are reported as maximum fluorescence after agonist exposure minus basal fluorescence before exposure. Antagonist activity is indicated as inhibitor concentration required for 50% inhibition of specific calcium increases.
A general note: Calcium flux is commonly read through the fluorescence of an indicator in the cells.
What is called pIC50 is the IC50 on a negative log10 scale, so that one unit is a factor of ten. On to `C[C@H]1C(=O)N(CCC(=O)N2CC[C@](C)(CO)[C@H](O)C2)CCN1C(=O)Nc1ccc(Cl)c(Cl)c1` (mixture of isomers) [Example 21, (S)-4-[3-((3SR,4RS)-3-Hydroxy-4-hydroxymethyl-4-methyl-piperidin-1-yl)-3-oxo-propyl]-2-methyl-3-oxo-piperazine-1-carboxylic acid (3,4-dichloro-phenyl)-amide], for which the negative logarithm of the IC50 (pIC50) was 6.07.
The same measure for `C[C@H]1C(=O)N(CCC(=O)N2CC[C@H](F)[C@@H](O)C2)CCN1C(=O)Nc1ccc(Cl)c(Cl)c1` (mixture of isomers) [Example 23, (S)-4-[3-((3SR,4SR)-4-Fluoro-3-hydroxy-piperidin-1-yl)-3-oxo-propyl]-2-methyl-3-oxo-piperazine-1-carboxylic acid (3,4-dichloro-phenyl)-amide]: 5.41; for `C[C@H]1C(=O)N(CCCC(=O)N2CCCC(O)C2)CCN1C(=O)Nc1cccc(Cl)c1` (mixture of isomers) [Example 112, (S)-4-[4-((RS)-3-Hydroxy-piperidin-1-yl)-4-oxo-butyl]-2-methyl-3-oxo-piperazine-1-carboxylic acid (3-chloro-phenyl)-amide]: 5.49; for `C[C@H]1C(=O)N(CCCC(=O)N2CC[C@H](F)[C@@H](O)C2)CCN1C(=O)Nc1cccc(Cl)c1` (mixture of isomers) [Example 115, (S)-4-[4-((3SR,4SR)-4-Fluoro-3-hydroxy-piperidin-1-yl)-4-oxo-butyl]-2-methyl-3-oxo-piperazine-1-carboxylic acid (3-chloro-phenyl)-amide]: 5.87.
The same measure for `C[C@H]1C(=O)N(CCCC(=O)N2CCC3(CC3)[C@H](O)C2)C(C(=O)O)CN1C(=O)Nc1ccc(Cl)c(Cl)c1` (mixture of isomers) [Example 120, (2RS,5S)-4-(3,4-Dichloro-phenylcarbamoyl)-1-[4-((S)-4-hydroxy-6-aza-spiro[2.5]oct-6-yl)-4-oxo-butyl]-5-methyl-6-oxo-piperazine-2-carboxylic acid]: 6.41; for `O=C(/C=C/c1ccc(Cl)c(Cl)c1)N1CCC(=O)N(CCC(=O)N2CC[C@H](O)[C@H](O)C2)CC1` (racemic) [Example 2, 1-[(E)-3-(3,4-Dichloro-phenyl)-acryloyl]-4-[3-((3RS,4SR)-3,4-dihydroxy-piperidin-1-yl)-3-oxo-propyl]-[1,4]diazepan-5-one]: 5.71.
The figure for `CN(C)C(=O)C(CCO)N1CCN(C(=O)/C=C/c2ccc(Cl)c(Cl)c2)CCC1=O` (racemic) [Example 3, (rac)-2-{4-[(E)-3-(3,4-Dichloro-phenyl)-acryloyl]-7-oxo-[1,4]diazepan-1-yl}-4-hydroxy-N,N-dimethyl-butyramide] is 6.25; for `O=C(/C=C/c1ccc(Cl)c(Cl)c1)N1CCC(=O)N(C(CCO)C(=O)N2CCCC2)CC1` (racemic) [Example 5, rac-(1-[(E)-3-(3,4-Dichloro-phenyl)-acryloyl]-4-[3-hydroxy-1-(pyrrolidine-1-carbonyl)-propyl]-[1,4]diazepan-5-one)] it is 6.23.
As for `O=C(/C=C/c1ccc(Cl)c(Cl)c1)N1CCC(=O)N(C(CO)CC(=O)N2CCCCC2)CC1` (racemic) [Example 6, rac-(1-[(E)-3-(3,4-Dichloro-phenyl)-acryloyl]-4-(1-hydroxymethyl-3-oxo-3-piperidin-1-yl-propyl)-[1,4]diazepan-5-one)], the negative-log IC50 (pIC50) was 5.69.
The figure for `COC(=O)C(CC(=O)N(C)C)N1CCN(C(=O)/C=C/c2ccc(Cl)c(Cl)c2)CCC1=O` (racemic) [Example 8, rac-(2-{4-[(E)-3-(3,4-Dichloro-phenyl)-acryloyl]-7-oxo-[1,4]diazepan-1-yl}-N,N-dimethyl-succinamic acid methyl ester)] is 6.06.
Take `COC(=O)C(CC(=O)N(C)C)N1CCN(C(=O)/C=C/c2cccc(Cl)c2)CCC1=O` (racemic) [Example 12, rac-(2-{4-[(E)-3-(3-Chloro-phenyl)-acryloyl]-7-oxo-[1,4]diazepan-1-yl}-N,N-dimethyl-succinamic acid methyl ester)]: the pIC50 was 5.71.
Take `O=C(/C=C/c1ccc(Cl)c(Cl)c1)N1CCC(=O)N(CCC(=O)N2CCCCC2CO)CC1` (racemic) [Example 67, (rac)-1-[(E)-3-(3,4-Dichloro-phenyl)-acryloyl]-4-[3-(2-hydroxymethyl-piperidin-1-yl)-3-oxo-propyl]-[1,4]diazepan-5-one]: the pIC50 was 5.79.
The same measure for `O=C(/C=C/c1ccc(Cl)c(Cl)c1)N1CCC(=O)N(CCC(=O)N2CCCC(CO)C2)CC1` (racemic) [Example 68, (rac)-1-[(E)-3-(3,4-Dichloro-phenyl)-acryloyl]-4-[3-(3-hydroxymethyl-piperidin-1-yl)-3-oxo-propyl]-[1,4]diazepan-5-one]: 6.12.
The same measure for `O=C(/C=C/c1ccc(Cl)c(Cl)c1)N1CCC(=O)N(CCC(=O)N2CCCC(O)C2)CC1` (racemic) [Example 70, (rac)-1-[(E)-3-(3,4-Dichloro-phenyl)-acryloyl]-4-[3-(3-hydroxy-piperidin-1-yl)-3-oxo-propyl]-[1,4]diazepan-5-one]: 5.89; for `CC1CCN(C(=O)CCN2CCN(C(=O)/C=C/c3ccc(Cl)c(Cl)c3)CCC2=O)CC1O` (racemic) [Example 71, (rac)-1-[(E)-3-(3,4-Dichloro-phenyl)-acryloyl]-4-[3-(3-hydroxy-4-methyl-piperidin-1-yl)-3-oxo-propyl]-[1,4]diazepan-5-one]: 6.17; for `CC1(O)CCCN(C(=O)CCN2CCN(C(=O)/C=C/c3ccc(Cl)c(Cl)c3)CCC2=O)C1` (racemic) [Example 74, (rac)-1-[(E)-3-(3,4-Dichloro-phenyl)-acryloyl]-4-[3-(3-hydroxy-3-methyl-piperidin-1-yl)-3-oxo-propyl]-[1,4]diazepan-5-one]: 5.81.
In the case of `CC1(CO)CCCCN1C(=O)CCN1CCN(C(=O)/C=C/c2ccc(Cl)c(Cl)c2)CCC1=O` (racemic) [Example 75, (rac)-1-[(E)-3-(3,4-Dichloro-phenyl)-acryloyl]-4-[3-(2-hydroxymethyl-2-methyl-piperidin-1-yl)-3-oxo-propyl]-[1,4]diazepan-5-one], the negative-log IC50 (pIC50) was 6.01.
`CC1(CO)CCCN1C(=O)CCN1CCN(C(=O)/C=C/c2ccc(Cl)c(Cl)c2)CCC1=O` (racemic) [Example 81, (rac)-1-[(E)-3-(3,4-Dichloro-phenyl)-acryloyl]-4-[3-(2-hydroxymethyl-2-methyl-pyrrolidin-1-yl)-3-oxo-propyl]-[1,4]diazepan-5-one]: the pIC50 was 5.77.
For `CC1(O)CCCN(C(=O)CN2CCN(C(=O)/C=C/c3ccc(Cl)c(Cl)c3)CCC2=O)C1` (racemic) [Example 100, (rac)-1-[(E)-3-(3,4-Dichloro-phenyl)-acryloyl]-4-[2-(3-hydroxy-3-methyl-piperidin-1-yl)-2-oxo-ethyl]-[1,4]diazepan-5-one], the negative logarithm of the IC50 (pIC50) was 6.39.
The same measure for `C[C@H]1C(=O)N(CCCC(=O)N2CC[C@](C)(CO)[C@H](O)C2)CCN1C(=O)Nc1cccc(Cl)c1` (racemic) [Example 114, (S)-4-[4-((3SR,4RS)-3-Hydroxy-4-hydroxymethyl-4-methyl-piperidin-1-yl)-4-oxo-bulyl]-2-methyl-3-oxo-piperazine-1-carboxylic acid (3-chloro-phenyl)-amide]: 7.50.
